# Patent publication US9138434B2, “Octahydrothienoquinoline derivative, pharmaceutical composition comprising derivative, and use of these” (KISSEI PHARMACEUTICAL CO., LTD., priority 2011, dated 2015)
# Where two headings read alike, the source gives them in different places.
# Columns and labels:
# [1] = target: T1, human serotonin 5-HT2B receptor (Homo sapiens, UniProt P41595); assay: Stimulating activities on human serotonin 5-HT2B receptor, intracellular calcium in forced expression HEK293 cells; type: cell-based
# T1 construct: expressed in transfected cells; host or cells: HEK293, transient transfection (Lipofectamine 2000)
# T1 sequence (P41595 whole entry): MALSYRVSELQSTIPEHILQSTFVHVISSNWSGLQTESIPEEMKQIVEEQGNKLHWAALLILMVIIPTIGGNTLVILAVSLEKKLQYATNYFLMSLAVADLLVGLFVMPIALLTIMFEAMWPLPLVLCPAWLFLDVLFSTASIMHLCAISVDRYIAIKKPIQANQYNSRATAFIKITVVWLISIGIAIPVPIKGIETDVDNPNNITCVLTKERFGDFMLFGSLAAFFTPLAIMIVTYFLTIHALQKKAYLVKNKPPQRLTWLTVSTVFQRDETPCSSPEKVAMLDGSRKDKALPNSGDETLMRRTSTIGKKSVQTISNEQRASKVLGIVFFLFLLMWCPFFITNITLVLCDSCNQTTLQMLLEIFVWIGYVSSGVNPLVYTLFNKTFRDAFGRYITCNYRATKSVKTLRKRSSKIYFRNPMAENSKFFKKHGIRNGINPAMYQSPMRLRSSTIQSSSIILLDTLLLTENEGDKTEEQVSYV
# Procedure: Identification Test of Stimulating Activities on Human Serotonin 5-HT2B Receptor
# The PCR was performed using forward primer depicted as sequence ID No. 4, reverse primer depicted as sequence ID No. 5 and KOD-Plus-Ver.2 (TOYOBO) as template of human brain hippocampus cDNA (Clontech). The PCR product was inserted into a plasmid (pcDNA3.1/V5-His-Topo (registered mark)). The PCR product-inserted plasmid was transformed in E. coli (One Shot TOP10 Chemically Competent). That E. coli was incubated in LB agar medium contained 50 μg/mL ampicillin for a day. A selected colony was incubated in LB medium contained 50 μg/mL ampicillin and PCR product-inserted plasmid was purified with QIAprep Spin Miniprep Kit (QIAGEN).
# Mostly confluent HEK293 cells were washed with PBS, followed by exfoliation with 0.05% trypsin-EDTA and the cells were suspended in D-MEM liquid medium (phenol red-free, low glucose, pyruvic acid were contained) containing fetal bovine serum (final concentration: 10%) and GlutaMax (registered mark)I (final concentration: 2 mM). The suspension was scattered at 5×10^4 cells/100 L/well on poly-D-lysine-coated 96-well microplate (BD BioCoat (registered mark)). The scattered cells were cultured in 5% CO2 incubator at 37° C. Human serotonin 5-HT2B receptor expression plasmid was transfected in that cells according to the procedure seeing below.
# Human serotonin 5-HT2B receptor expression plasmid and Lipofectamine (registered mark) 2000 (Invitrogen) were diluted to 0.008 g/L and 0.016 g/L each other with OPTI-MEM (registered mark)I Reduced-Serum Medium and incubated at room temperature. After incubation, the human serotonin 5-HT2B receptor exoression plasmid-diluted liquid and Lipofectamine (registered mark) 2000-diluted liquid were mixed at an equal volume and incubated at room temperature to form a complex. The complex was dispensed at 50 μL/well on the cells prepared above. The cells were incubated in 5% CO2 incubator at 37° C. for 2 days. After incubation, the cells were used as human serotonin 5-HT2B receptor forced expression cells for measurement of intracellular calcium concentration.
# 3) Determination of Stimulating Activities of Human Serotonin 5-HT2B Receptor
# The stimulating activities of human serotonin 5-HT2B receptor was determined by measuring of intracellular calcium concentration. The 30 mM dimethyl sulfoxide (DMSO) solution contained test compounds or serotonin hydrochloride (Sigma) as positive control, was diluted with assay buffer ((HBSS), 20 mM HEPES, 1.3 mM calcium chloride, 0.5 mM magnesium chloride and 0.4 mM magnesium sulfate were contained, pH7.4) to appropriate concentration.
# The forced expression cells were washed with assay buffer, and 100 μL/well of fluorescent calcium indicator (Fluo-4 NW Calcium Assay Kit) was added and incubated in 5% CO2 incubator at 37° C. After incubation, 50 μL/well of each test compound was added, and the concentration of intracellular calcium was measured as fluorescent signal with FlexStation (registered mark) II (Molecular Devices). The data was analyzed by nonlinear regression and sigmoidal dose-response curve fitting using GraphPad PRISM 4.0, and values of EC50 (concentration of the compound producing half the maximal effect of the compound) were calculated. The data was presented as mean value (n=2).
# [2] = test system: unilateral 6-OHDA-lesioned hemi-Parkinsonian rats; assay: Contralateral rotational behavior in unilateral 6-hydroxydopamine-lesioned hemi-parkinsonian rats; type: in vivo, rat (male Sprague-Dawley); conditions: 10 mg/kg oral, fasted rats, observed up to 24 hours, mean; for Total number or rotations: contralateral rotations; for Duration: duration of contralateral rotation response
# Procedure: 6-OHDA was dissolved at 2 mg/mL in a physiolosical saline solution containing 0.2% L-ascorbic acid. Desipramine was dissolved at 10 mg/mL in a physiolosical saline solution in a hot-water bath. Apomorphine was dissolved at 0.1 mg/mL in a physiolosical saline solution. […] Test compounds were dissolved in a solution containing 2% DMA, 100 or 200 mol % hydrochloric acid, and 98% of a 0.5% methyl cellulose solution. […] (Eur J Pharmacol, 2000, vol. 408, P. 249-255) with a minor modification. Male Sprague-Dawley rats (6-weeks-old, Charles River Laboratories Japan Inc.) were anaesthetized with intraperitoneal somnopentyl (45 mg/kg) injection and placed in a stereotaxic frame (Narishige). In order to prevent 6-OHDA-induced damage of noradrenergic neurons, desipramine (25 mg/kg) was intraperitoneally injected 30 minutes before the 6-OHDA injection. After the bregma identification via a middle calvarial incision, the skull was drilled using a dental drill at the site of 6-OHDA injection. The lesion was made by injecting 6-OHDA (8 μg in 4 μL at a speed of 1 μL/minute) unilaterally into the left medial forebrain bundle by using a injection cannula (30 gauge needle) connected to a microsyringe (Hamilton) (the lesion coordinates; A/P −2.5 mm, L/M −1.8 mm, and V/D −8.0 mm, from the bregma point and surface of the skull). The cannula was carefully removed from the animal after keeping placed on the lesion site for 5 minutes. The skull was filled its hole with dental cement, disinfected, and the scalp incision was surgically sutured. Animals recovered from anesthesia were housed as usual until the day of the experiment. 3) Determining of Contralateral Rotational Behavior Three weeks after the lesion, rats were tested on the basis of their contralateral rotational behavior (single rotation was defined as a 360° turn) in response to 0.1 mg/kg apomorphine given subcutaneously. For behavioral observation, rats were placed in plastic cylinders of a diameter of 30 cm, and its contralateral rotational behaviors were videotaped and quantified by rat-rotation auto counting system R-RACS (Kissei Wellcom). On the experimental day, animals were fasted overnight, and test compounds were orally administrated at doses of 10 mg/kg. […] Total number of rotations and the duration of the response in experimental period were presented as mean value.
# [3] = intracellular calcium (Fluo-4), HEK293 cells transiently expressing human 5-HT2B receptor, mean, n=2, read-out: EC50
SMILES,"EC50 [1, 3]",EC50 [1],Total number or rotations [2],Duration [2]
"CCCN(CCC)CCc1cccc2c1CC(=O)N2 [Ropinirole, ropinirole, reference compound]",,2.59 µM,276.3,61.3 min
"CCN(C(=O)NCCN(C)C)C(=O)[C@@H]1C[C@@H]2Cc3c(sc(N)c3C#N)C[C@H]2N(C)C1 [1-108, 1-{[(4aR,6R,8aR)-2-amino-3-cyano-8-methyl-4H,4aH,5H,6H,7H,8H,8aH,9H-thieno[3,2-g]quinolin-6-yl]carbonyl}-3-[2-(dimethylamino)ethyl]-1-ethylurea]",> 10 µM,,2577.5,698.8 min
"CCCCN(C(=O)NCCN(CC)CC)C(=O)[C@@H]1C[C@@H]2Cc3c(sc(N)c3C#N)C[C@H]2N(C)C1 [1-3, 1-{[(4aR,6R,8aR)-2-amino-3-cyano-8-methyl-4H,4aH,5H,6H,7H,8H,8aH,9H-thieno[3,2-g]quinolin-6-yl]carbonyl}-1-butyl-3-[2-(diethylamino)ethyl]urea]",> 10 µM,,4478.3,845.0 min
"CCCN(C(=O)NCCN(C)C)C(=O)[C@@H]1C[C@@H]2Cc3c(sc(N)c3C#N)C[C@H]2N(C)C1 [1-1, 1-{[(4aR,6R,8aR)-2-amino-3-cyano-8-methyl-4H,4aH,5H, 6H,7H,8H,8aH,9H-thieno[3,2-g]quinolin-6-yl]carbonyl}-3-[2-(dimethylamino)ethyl]-1-propylurea]",> 10 µM,,9431.8,1101.3 min
"CC(C)CCN(C(=O)NCCN(C)C)C(=O)[C@@H]1C[C@@H]2Cc3c(sc(N)c3C#N)C[C@H]2N(C)C1 (relative stereo) [1-43, 1-{[(4aR*,6R*,8aR*)-2-amino-3-cyano-8-methyl-4H,4aH,5H,6H,7H,8H,8aH,9H-thieno[3,2-g]quinolin-6-yl]carbonyl}-3-[2-(dimethylamino)ethyl]-1-(3-methylbutyl)urea]",> 10 µM,,7557.5,843.8 min
"CCCCN(C(=O)NCCN1CCCCC1)C(=O)[C@@H]1C[C@@H]2Cc3c(sc(N)c3C#N)C[C@H]2N(C)C1 (relative stereo) [1-46, 1-{[(4aR*,6R*,8aR*)-2-amino-3-cyano-8-methyl-4H,4aH,5H,6H,7H,8H,8aH,9H-thieno[3,2-g]quinolin-6-yl]carbonyl}-1-butyl-3-[2-(piperidin-1-yl)ethyl]urea]",> 10 µM,,10329.8,1158.8 min

# Further lines, with some results ahead:
"EC50 [1, 3]",SMILES,EC50 [1],Total number or rotations [2],Duration [2]
> 10 µM,"CCN(C(=O)N[C@@H](C)CN(C)C)C(=O)[C@@H]1C[C@@H]2Cc3c(sc(N)c3C#N)C[C@H]2N(C)C1 [1-57, 1-{[(4aR,6R,8aR)-2-amino-3-cyano-8-methyl-4H,4aH,5H,6H, 7H,8H,8aH,9H-thieno[3,2-g]quinolin-6-yl]carbonyl}-3-[(2S)-1-(dimethylamino)propan-2-yl]-1-ethylurea]",,9976.5,1190.0 min
> 10 µM,"CCN(C(=O)NCC(C)(C)CN(C)C)C(=O)[C@@H]1C[C@@H]2Cc3c(sc(N)c3C#N)C[C@H]2N(C)C1 [1-4, 1-{[(4aR,6R,8aR)-2-amino-3-cyano-8-methyl-4H,4aH,5H,6H,7H,8H,8aH,9H-thieno[3,2-g]quinolin-6-yl]carbonyl}-3-[3-(dimethylamino)-2,2-dimethylpropyl]-1-ethlylurea]",,6338.8,1131.3 min
> 10 µM,"CCCCN(C(=O)NCCN(C)C)C(=O)[C@@H]1C[C@@H]2Cc3c(sc(N)c3C#N)C[C@H]2N(C)C1 (relative stereo) [1-24, 1-{[(4aR*,6R*,8aR*)-2-amino-3-cyano-8-methyl-4H,4aH,5H,6H,7H,8H,8aH,9H-thieno[3,2-g]quinolin-6-yl]carbonyl}-1-butyl-3-[2-(dimethylamino)ethyl]urea]",,5230.0,766.3 min
